# From patent US20090036437A1, “PHARMACEUTICAL COMPOSITION COMPRISING PHENOXAZINIUM COMPOUND AS AN ACTIVE INGREDIENT” (priority 2005, published 2009)
# Where two headings read alike, the source gives them in different places.
# Tests used:
# Plasmodium falciparum W2 = conditions: in vitro; cited from earlier work
# malaria = conditions: mice infected with malaria; 4-day successive treatment, peritoneal administration 5 mg/kg/day; cited from earlier work
# [1] = system: Plasmodium Falciparum K1 strain; experiment: in vitro growth-inhibiting screening assay, chloroquine-resistant falciparum malaria; assay type: cell-based
# Experimental: Plasmodium Falciparum K1 strain was used as a chloroquine-resistant protozoa of falciparum malaria. RMI-1640 sterilized by filtration was supplemented with human serum of a final concentration of 5% to be used as a culture medium. The malaria protozoa were cultured under O2 concentration of 3%, CO2 concentration of 4%, N2 concentration of 93% at 37° C.
# A test sample was prepared by dissolving the test compounds according to the present invention and a positive control drug (chloroquine) in DMSO to a predetermined concentration. The erythrocytes infected with the cultured malaria protozoa were collected by centrifugation and so diluted with non-infected erythrocytes to have an initial infection ratio of 0.15%. The hematocrit value was then 2.5%. Culture mixture of the above malaria-infection culture medium (200 μL) was placed into each well of a 96-well culture plate, and the test sample comprising the predetermined amount of the test compound, and DMSO without the test compound were added to the wells in duplicate.
# After culture for 48 hours at 37° C., hypoxanthine labeled with radioactive tritium (^3H) of 0.5 μCi was added to each well. After the culture in the same conditions for further 24 hours, the sample was taken on a glass fiber filter and washed with distilled water. Intensity of radiation was measured by means of plate liquid scintillation counter (Wallac Co.), and an infection ratio of the protozoa of malaria was calculated with respect to a group treated with the test sample and the control. A growth-inhibiting ratio was then calculated from the resulting infection ratio in accordance with the following equation to determine 50% growth-inhibiting concentration (EC50).
# Growth-inhibiting ratio (%)=[1−(b−a)/(c−a)]×100 • a: Initial infection ratio; • b: Infection ratio of the test sample group; and • c: Infection ratio of the control group. In vitro Growth-Inhibiting Assay of Rat L6 Cells
# Anti-malaria effect of the samples was assessed by their EC50 values for the chloroquine-resistant protozoa of falciparum malaria and the rat L6 cell. A chemotherapy coefficient, which is used as an index for the selective toxicity for the chloroquine-resistant protozoa of falciparum malaria was calculated by the following equation, and the pharmaceutical effect was determined.
# Chemotherapy coefficient=(EC50 value of the test sample for rat L6 cell)/(EC50 value of the test sample for the chloroquine-resistant protozoa of falciparum malaria)
# [2] = system: Plasmodium berghei NK65 strain; experiment: in vivo 4-day suppressive test, intraperitoneal administration, mouse infected with malaria; conditions: 4 days
# Experimental: This test was carried out in accordance with 4-day suppressive test that is a general in vivo test for the activity of an anti-malaria compound. Rodent malaria protozoa (Plasmodium berghei NK65 strain) were used in this test. Infected blood was prepared by infection with intraperitoneal administration into ICR male mouse (5 weeks age; SPF) and passage culture (subculture) thereafter. Blood was drawn from the vein of a tail of the moue infected with malaria, and its infection ratio was determined. After it was confirmed that the infection ratio had been increased up to an appropriated level (10˜20%), the blood infected with malaria was drawn from the heart of the mouse. The infection ratio and number (cells/mL) of erythrocytes were determined. An uninfected mouse (ICR male, 5 weeks age) was then infected with an injection of the infected erythrocytes so diluted with PBS as to comprise the protozoa of […] per dose (0.2 mL) into the vein of its tail.
# A test sample was prepared by dissolving the test compounds according to the present invention into physiologic saline (Otsuka Pharmaceuticals Industries) to a predetermined concentration. In the case where the compound was insoluble in water, it was dissolved into DMSO or Tween 20 to prepare the test sample. A control group (no drug-administration group) was treated only with physiologic saline. […]
# One group consisted of five mice. The intraperitoneal administration of the test sample started after two hours from the infection with malaria and continued for successive 4 days with a 24-hour interval. After 24 hours from the last administration, blood was drawn from the tail of the infected mouse to prepare a thin-layer smear, and the number of the erythrocytes infected with the malaria protozoa under a microscope with respect to the control group and the test sample groups. Parasitemia, i.e., the infection ratio with the malaria protozoa, was obtained by calculating an average value of the medium three mice except the two mice showing a maximum or minimum inhibition level. A cure rate (suppression) was then calculated from the resulting parasitemia in accordance with the following equation.
# Cure rate: suppression (%)=(b−a)/b×100 • a: Infection ratio of the test sample group; and • b: Infection ratio of the control group.
# [3] = system: Rat L6 cell (rat skeletal myoblast cell); experiment: in vitro growth-inhibiting assay of rat L6 cells; assay type: cell-based
# Experimental: Rat L6 cell (rat skeletal myoblast cell) was cultured in RPMI-1640 culture medium supplemented with 1% of L-glutamine (200 mM) and fetal calf serum (10%) under 5% CO2 concentration at 37° C. A test sample was prepared by dissolving the test compounds according to the present invention and a positive control drug in DMSO to a predetermined concentration. After pre-culture had been finished, the culture medium containing the cells in a logarithmic phase was placed into each well of a 96-well culture plate, and the test sample comprising the predetermined amount of the test compound, and DMSO without the test compound were added to the wells in duplicate.
# After incubation of the culture plate for 72 hours in an incubator, a growth-inhibiting activity was assayed as follows. Alamar Blue aqueous solution (10 μL) was added to each well followed by a further two-hour culture. The culture plate was then attached to a fluorescence micro titer plate reader (Spectramax Gemeni XS; U.S. Molecular Device Co.), and the intensity of fluorescence at 588 nm was detected with an excitation wave length of 536 nm. A residual ratio of L6 cells was calculated with respect to a group treated with the test sample and a control group. A growth-inhibiting ratio for L6 cells was then calculated from the resulting residual ratio in accordance with the following equation to determine 50% growth-inhibiting concentration (EC50).
# Growth-inhibiting ratio (%)=[1−(C−A)/(B−A)]×100 • A: Initial number of cells; • B: Number of the cells in the control after 3 days; and • C: Number of the cells treated with the test sample after 3 days Determination of Pharmaceutical effect for Chloroquine-Resistant Malaria
# [4] = system: Leishmania donovani (MHOM/ET/67/L82 strain); experiment: in vitro growth-inhibiting screening assay, protozoa of Leishmaniasis; assay type: cell-based; conditions: Leishmania donovani; amastigotes; 72 h, Alamar Blue; read-out: growth-inhibiting concentration (nM) Leishmania donovani
# Experimental: This test was done using the protozoa of Leishmania donovani (MHOM/ET/67/L82 strain). The protozoa were subcultured using Syrian Golden hamster and an amastigote was obtained therefrom. The amastigotes were cultured in SM medium supplemented with 10% of heat-treated fetal calf serum (pH 5.4) under CO2 concentration of 5%, at 37° C.
# A test sample was prepared by dissolving the test compounds according to the present invention and a positive control drug (Miltefosine) in DMSO to a predetermined concentration. Culture medium containing a predetermined number of the protozoa was added into each well of a 96-well culture plate, and the concentration of the amastigotes was measured by means of CASY cell analysis system (Dermany, Scharfe Co.). Test sample comprising the predetermined amount of the test compound, and DMSO without the test compound were added to the wells in duplicate.
# After incubation of the culture plate for 72 hours in an incubator, a growth-inhibiting activity was assayed as follows. Alamar Blue aqueous solution (10 μL) was added to each well followed by a further two-hour culture. The culture plate was then attached to a fluorescence micro titer plate reader (Spectramax Gemeni XS; U.S. Molecular device Co.), the intensity of fluorescence at 588 nm was detected with excitation wave length of 536 nm to calculate an infection ratio of the protozoa with respect to a group trated with the test sample and a control group. A growth-inhibiting ratio was then calculated from the resulting infection ratio in accordance with the following equation to determine 50% growth-inhibiting concentration (EC50).
# (§1) Growth-inhibiting ratio (%)=[1−(b−a)/(c−a)]×100 • a: Initial infection ratio; • b: Infection ratio of the test sample group; and • c: Infection ratio of the control group.
# A selective toxicity coefficient, which is used as an index for the selective toxicity for the protozoa of Leishmaniasis, was calculated by the following equation, and the pharmaceutical effect was determined.
# A selective toxicity coefficient=(EC50 value of the test sample for rat L6 cell)/(EC50 value of the test sample for the protozoa of Leishmaniasis).
# [5] = system: Trypanosoma cruzi (Tulahuen C2C4 strain); experiment: in vitro growth-inhibiting screening assay, protozoa of American trypanosomiasis; assay type: cell-based; conditions: Trypanosoma cruzi, TULAHUEN; in infected rat L6 cells; 96 h, CPRG/Nonidet; read-out: 50% growth-inhibiting concentration (nM) Trypanosoma cruzi
# Experimental: The test was done using a trypomastigote and an amastigote of the protozoa of Trypanosoma cruzi (Tulahuen C2C4 strain) present in the infected rat L6 cells. The L6 cells were cultured in RPMI-1640 medium supplemented with 1% of […] (200 mM) and 10% of fetal calf serum under CO2 concentration of 5%, at 37° C.
# A test sample was prepared by dissolving the test compounds according to the present invention and a positive control drug (benznidazole) in DMSO to a predetermined concentration. Culture medium containing the protozoa of 5×10^3 was added into each well of 96-well culture plate and cultured for 48 hours. After the medium was exchanged, the test sample comprising the predetermined amount of the test compound, and DMSO without the test compound were added into each well in duplicate.
# After incubation of the culture plate for 96 hours in an incubator, a growth-inhibiting activity was assayed as follows. CPRG/Nonidet (50 μL) was added to each well followed by a further 2˜6-hour culture. The culture plate was then attached to an absorption micro titer plate reader, the absorbance at 540 nm was detected to calculate an infection ratio of the protozoa with respect to a group treated with the test sample and a control group. A growth-inhibiting ratio was then calculated from the resulting infection ratio in accordance with the following equation to determine 50% growth-inhibiting concentration (EC50).
# as §1
# A selective toxicity coefficient, which is used as an index for the selective toxicity for the protozoa of American trypanosomiasis, was calculated by the following equation, and the pharmaceutical effect was determined.
# A selective toxicity coefficient=(EC50 value of the test sample for rat L6 cell)/(EC50 value of the test sample for the protozoa of American trypanosomiasis).
# [6] = chloroquine-resistant strain, 72 h culture, 3H-hypoxanthine, read-out: 50% growth-inhibiting concentration (nM) P. falciparum K1
# [7] = Table 3, 72 h, Alamar Blue, read-out: 50% growth-inhibiting concentration (nM) cytotoxicity L6
smiles,measurement,setting,value
CNc1ccc2nc3ccc(=[N+](C)C)cc-3sc2c1.[Cl-] [Azure B],EC50,Plasmodium falciparum W2,12.7 ± 7.36 nM
same,Suppression(%),malaria,9.1%
"CCN(CC)CCCC(C)Nc1ccnc2cc(Cl)ccc12 (stereo not shown) [Chloroquine, reference compound]",EC50,"[1]; Plasmodium falciparum, K1, read-out: 50% growth-inhibiting concentration (nM) P. falciparum K1",150 nM
CN(C)c1ccc2nc3ccc(=[N+](C)C)cc-3oc2c1.[O-][Cl+3]([O-])([O-])[O-] [Compound A-2],Parasitaemia suppression (%),[2]; 5 mg/kg/day intraperitoneal,45.9%
CC[N+](CC)=c1ccc2nc3ccc(N(C)C)cc3oc-2c1.[O-][Cl+3]([O-])([O-])[O-] [Compound A-5],Parasitaemia suppression (%),[2]; 5 mg/kg/day intraperitoneal,77.0%
"CCN(C)c1ccc2nc3ccc(N(C)C)cc3[o+]c2c1.[O-][Cl+3]([O-])([O-])[O-] [Compound A-9, 3-ethylmethylamino-7-dimethylamino phenoxazinium perchlorate]",Cure rate (%),[2]; 5 mg/kg/day intraperitoneal,71.7%
"CN(C)c1ccc2nc3ccc(N4CCNCC4)cc3[o+]c2c1.Cl.[Cl-] [Compound A-11, 3-dimethylamino-7-(1-piperazino) phenoxazinium chloride mono-hydrochloride salt]",EC50,[3],63800 nM
same,EC50,[1]; [6],27.5 nM
same,Parasitaemia suppression (%),[2]; 5 mg/kg/day intraperitoneal,54.8%
same,Parasitaemia suppression (%),"[2]; Table 5, 5.0 mg/kg/day intraperitoneal",54.8%
same,Parasitaemia suppression (%),"[2]; Table 5, 10 mg/kg/day intraperitoneal",78.5%
same,Parasitaemia suppression (%),"[2]; Table 5, 20 mg/kg/day intraperitoneal",98.1%
same,Parasitaemia suppression (%),"[2]; Table 5, 30 mg/kg/day intraperitoneal",>99.99%
CN1CCN(c2cc(O)c3nc4ccc(=[N+](C)C)cc-4oc3c2)CC1.Cl.[Cl-] [Compound A-14],EC50,[3]; [7],86400 nM
same,EC50,[1]; [6],196 nM
same,Parasitaemia suppression (%),[2]; 5 mg/kg/day intraperitoneal,17.4%
C[N+](C)=c1ccc2nc3c(O)cc(N4CCN(CCO)CC4)cc3oc-2c1 [Compound A-15],EC50,[3]; [7],74600 nM
same,EC50,[1]; [6],191 nM
CCOC(=O)N1CCN(c2cc(O)c3nc4ccc(=[N+](C)C)cc-4oc3c2)CC1.[Cl-] [Compound A-17],Parasitaemia suppression (%),[2]; 5 mg/kg/day intraperitoneal,38.6%
CC(=O)Oc1cc(N2CCN(C)CC2)cc2oc3cc(=[N+](C)C)ccc-3nc12.Cl.[Cl-] [Compound A-19],Parasitaemia suppression (%),[2]; 5 mg/kg/day intraperitoneal,21.4%
C[N+](C)=c1ccc2nc3c(C(=O)O)cc(O)c(O)c3oc-2c1.[Cl-] [Gallocyanine],EC50,Plasmodium falciparum W2,674 ± 159 nM
same,Suppression(%),malaria,15.6%
CN(C)c1ccc2nc3ccc(=[N+](C)C)cc-3sc2c1.[Cl-] [Methylene Blue],EC50,Plasmodium falciparum W2,3.99 ± 2.31 nM
same,Suppression(%),malaria,15.9%
"CCCCCCCCCCCCCCCCOP(=O)([O-])OCC[N+](C)(C)C [Miltefosine, reference compound]",EC50,[4],280 nM
Cc1cc2nc3cc(C)c(N)cc3[n+](-c3ccccc3)c2cc1N.[Cl-] [Safranine O],EC50,Plasmodium falciparum W2,34.8 ± 17.2 nM
same,Suppression(%),malaria,14.0%
"O=C(Cn1ccnc1[N+](=O)[O-])NCc1ccccc1 [benznidazole, reference compound]",EC50,[5],870 nM
